In publication PMC7252619 (PLoS ONE, 2020):
Like-named read-outs stand apart in the source and are kept apart here. Each block holds one compound with its values, some of them ahead of it.

Legend:
Test in all cases: Kinase activity test (ReactionBiology), % enzyme activity relative to DMSO
Format in all cases: biochemical
[1] = molecular target: T1, DAPK1 (Homo sapiens, UniProt P53355); details: DAPK1
T1 construct: purchased ReactionBiology

[2] = molecular target: VEGFR2 (Homo sapiens, UniProt P35968); set-up: purchased ReactionBiology; details: VEGFR2; for % Enzyme Activity (relative to DMSO controls), Data 2: replicate Data 2; for % Enzyme Activity (relative to DMSO controls), Data 1: replicate Data 1;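 for all read-outs here: VEGFR2 was one member of a ten-kinase screening panel testing marketed FDA-approved drugs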
[3] = molecular target: T2, NEK2 (Homo sapiens, UniProt P51955); details: NEK2; for % Enzyme Activity (relative to DMSO controls), Data 1: replicate Data 1; for % Enzyme Activity (relative to DMSO controls), Data 2: replicate Data 2;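 for all read-outs here: FDA-approved drugs chosen by structure-based repositioning, each screened at 10 or 1 µM for kinase activity, expressed as percent of DMSO controls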
T2 construct: purchased ReactionBiology
T2 sequence (P51955 1-445): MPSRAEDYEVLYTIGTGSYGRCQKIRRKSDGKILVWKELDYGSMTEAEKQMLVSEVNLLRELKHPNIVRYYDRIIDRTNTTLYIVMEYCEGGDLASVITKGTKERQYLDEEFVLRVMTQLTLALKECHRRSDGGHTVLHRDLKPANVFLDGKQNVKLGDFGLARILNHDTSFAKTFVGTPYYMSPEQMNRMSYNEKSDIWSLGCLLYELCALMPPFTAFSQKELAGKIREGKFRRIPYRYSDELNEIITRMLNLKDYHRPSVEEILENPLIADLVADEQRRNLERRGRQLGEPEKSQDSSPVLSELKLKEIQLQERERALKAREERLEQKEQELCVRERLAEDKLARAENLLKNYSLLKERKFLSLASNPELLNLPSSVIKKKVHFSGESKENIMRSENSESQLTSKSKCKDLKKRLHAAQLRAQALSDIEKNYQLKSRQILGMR

[4] = molecular target: T3, CK1d (Homo sapiens, UniProt P48730); details: CK1d
T3 construct: purchased ReactionBiology

[5] = Average, read-out: % Enzyme Activity (relative to DMSO controls), Average
[6] = replicate Data 1, read-out: % Enzyme Activity (relative to DMSO controls), Data 1
[7] = replicate Data 2, read-out: % Enzyme Activity (relative to DMSO controls), Data 2
[8] = 1 uM, Average, read-out: % Enzyme Activity (relative to DMSO controls), Average
[9] = 1 uM, replicate Data 1, read-out: % Enzyme Activity (relative to DMSO controls), Data 1
[10] = 1 uM, replicate Data 2, read-out: % Enzyme Activity (relative to DMSO controls), Data 2
[11] = 10 uM, Average, read-out: % Enzyme Activity (relative to DMSO controls), Average
[12] = 10 uM, replicate Data 1, read-out: % Enzyme Activity (relative to DMSO controls), Data 1
[13] = 10 uM, replicate Data 2, read-out: % Enzyme Activity (relative to DMSO controls), Data 2
[14] = compound 1μM, relative to DMSO controls, read-out: % Enzyme activity at 1μM
[15] = compound 10μM, relative to DMSO controls, read-out: % Enzyme activity at 10μM

T1 sequence (P53355 whole entry): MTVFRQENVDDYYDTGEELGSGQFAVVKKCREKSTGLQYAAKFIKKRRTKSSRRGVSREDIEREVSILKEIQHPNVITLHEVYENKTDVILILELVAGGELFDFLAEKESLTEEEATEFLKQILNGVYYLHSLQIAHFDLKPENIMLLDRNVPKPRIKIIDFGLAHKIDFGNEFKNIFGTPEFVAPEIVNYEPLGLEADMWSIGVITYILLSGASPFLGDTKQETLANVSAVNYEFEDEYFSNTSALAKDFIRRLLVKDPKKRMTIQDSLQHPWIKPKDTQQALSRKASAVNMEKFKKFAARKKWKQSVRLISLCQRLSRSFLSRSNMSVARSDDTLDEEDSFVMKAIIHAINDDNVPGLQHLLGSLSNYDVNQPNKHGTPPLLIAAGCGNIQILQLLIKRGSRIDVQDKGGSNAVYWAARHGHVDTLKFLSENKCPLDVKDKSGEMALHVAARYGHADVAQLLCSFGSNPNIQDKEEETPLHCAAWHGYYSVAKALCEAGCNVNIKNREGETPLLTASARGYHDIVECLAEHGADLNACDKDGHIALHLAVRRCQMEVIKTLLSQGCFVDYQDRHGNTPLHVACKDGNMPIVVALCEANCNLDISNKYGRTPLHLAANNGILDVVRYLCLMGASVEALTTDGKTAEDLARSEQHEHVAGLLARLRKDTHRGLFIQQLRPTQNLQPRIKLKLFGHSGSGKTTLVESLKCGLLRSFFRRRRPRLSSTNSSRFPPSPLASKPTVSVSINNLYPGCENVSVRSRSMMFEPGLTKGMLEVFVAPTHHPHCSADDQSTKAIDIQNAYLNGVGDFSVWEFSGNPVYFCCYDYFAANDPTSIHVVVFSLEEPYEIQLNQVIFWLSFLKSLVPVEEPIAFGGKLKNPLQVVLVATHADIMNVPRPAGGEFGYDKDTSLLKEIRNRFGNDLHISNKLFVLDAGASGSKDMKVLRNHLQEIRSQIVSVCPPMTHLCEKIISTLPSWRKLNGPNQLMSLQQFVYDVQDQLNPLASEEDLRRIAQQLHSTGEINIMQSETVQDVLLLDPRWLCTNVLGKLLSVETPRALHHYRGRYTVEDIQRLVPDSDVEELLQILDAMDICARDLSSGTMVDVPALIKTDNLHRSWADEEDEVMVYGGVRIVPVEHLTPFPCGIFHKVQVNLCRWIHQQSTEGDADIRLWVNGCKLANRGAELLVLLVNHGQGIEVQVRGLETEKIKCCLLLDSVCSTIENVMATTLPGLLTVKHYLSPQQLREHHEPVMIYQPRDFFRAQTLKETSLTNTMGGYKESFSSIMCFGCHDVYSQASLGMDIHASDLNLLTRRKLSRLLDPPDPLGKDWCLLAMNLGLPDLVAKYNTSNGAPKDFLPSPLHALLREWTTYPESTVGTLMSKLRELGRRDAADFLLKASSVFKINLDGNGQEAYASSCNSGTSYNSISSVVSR
Sequence of VEGFR2 (P35968 20-1356): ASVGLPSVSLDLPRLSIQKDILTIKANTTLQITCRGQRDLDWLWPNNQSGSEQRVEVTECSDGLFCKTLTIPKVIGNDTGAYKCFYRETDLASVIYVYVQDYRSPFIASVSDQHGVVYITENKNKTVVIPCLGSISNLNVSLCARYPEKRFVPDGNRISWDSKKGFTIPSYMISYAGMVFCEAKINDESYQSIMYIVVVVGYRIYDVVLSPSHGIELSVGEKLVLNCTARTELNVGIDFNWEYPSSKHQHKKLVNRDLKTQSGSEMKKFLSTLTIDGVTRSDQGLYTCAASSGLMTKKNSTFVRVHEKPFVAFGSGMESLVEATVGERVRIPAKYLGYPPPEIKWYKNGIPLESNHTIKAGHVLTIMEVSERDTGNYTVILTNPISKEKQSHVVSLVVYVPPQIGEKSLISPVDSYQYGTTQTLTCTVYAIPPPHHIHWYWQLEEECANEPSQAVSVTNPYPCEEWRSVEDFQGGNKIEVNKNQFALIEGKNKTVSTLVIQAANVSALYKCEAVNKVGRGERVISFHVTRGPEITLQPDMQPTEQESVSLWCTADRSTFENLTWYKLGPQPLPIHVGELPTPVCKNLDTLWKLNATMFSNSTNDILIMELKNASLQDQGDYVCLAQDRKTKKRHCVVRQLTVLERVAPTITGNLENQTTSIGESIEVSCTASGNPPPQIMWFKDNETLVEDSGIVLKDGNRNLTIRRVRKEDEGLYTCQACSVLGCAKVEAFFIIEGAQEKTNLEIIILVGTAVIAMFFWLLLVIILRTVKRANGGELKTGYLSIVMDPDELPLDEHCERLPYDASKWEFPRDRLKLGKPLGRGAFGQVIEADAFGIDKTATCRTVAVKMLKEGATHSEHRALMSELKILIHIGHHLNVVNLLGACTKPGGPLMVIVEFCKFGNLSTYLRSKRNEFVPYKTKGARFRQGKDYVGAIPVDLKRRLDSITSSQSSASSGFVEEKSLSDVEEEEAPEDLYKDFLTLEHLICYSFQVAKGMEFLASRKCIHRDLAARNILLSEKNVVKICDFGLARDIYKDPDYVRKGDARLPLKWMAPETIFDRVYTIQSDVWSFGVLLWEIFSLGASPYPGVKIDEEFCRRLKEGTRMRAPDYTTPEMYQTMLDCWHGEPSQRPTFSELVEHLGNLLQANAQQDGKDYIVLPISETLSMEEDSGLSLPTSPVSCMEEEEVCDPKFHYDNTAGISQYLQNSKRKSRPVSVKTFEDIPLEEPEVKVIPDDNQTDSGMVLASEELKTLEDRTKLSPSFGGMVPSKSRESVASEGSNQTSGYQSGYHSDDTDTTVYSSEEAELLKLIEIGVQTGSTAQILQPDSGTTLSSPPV
T3 sequence (P48730 whole entry): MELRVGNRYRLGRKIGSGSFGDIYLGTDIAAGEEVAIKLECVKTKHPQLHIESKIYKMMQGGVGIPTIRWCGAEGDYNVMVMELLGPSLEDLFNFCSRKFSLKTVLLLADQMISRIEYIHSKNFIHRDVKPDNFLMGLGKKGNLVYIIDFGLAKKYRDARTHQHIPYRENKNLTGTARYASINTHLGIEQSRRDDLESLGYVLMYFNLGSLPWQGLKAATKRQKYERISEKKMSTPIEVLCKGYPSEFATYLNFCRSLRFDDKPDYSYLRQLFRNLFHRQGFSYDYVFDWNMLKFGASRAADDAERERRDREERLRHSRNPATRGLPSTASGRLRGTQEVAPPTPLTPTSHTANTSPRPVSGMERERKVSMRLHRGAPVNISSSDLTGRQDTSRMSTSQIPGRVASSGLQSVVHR

Compound: NC[C@H](O)c1ccc(O)c(O)c1 [Norepinephrine]
- % Enzyme Activity (relative to DMSO controls), Average ([1]; 1 uM, Average): 102.77%
- % Enzyme Activity (relative to DMSO controls), Data 1 ([1]; 1 uM, replicate Data 1): 101.72%
- % Enzyme Activity (relative to DMSO controls), Data 2 ([1]; 1 uM, replicate Data 2): 103.82%
- % Enzyme Activity (relative to DMSO controls), Average ([1]; 10 uM, Average): 92.90%
- % Enzyme Activity (relative to DMSO controls), Data 1 ([1]; 10 uM, replicate Data 1): 93.2%
- % Enzyme Activity (relative to DMSO controls), Data 2 ([1]; 10 uM, replicate Data 2): 92.59%

Compound: N=C(N)c1ccc(OCCCCCOc2ccc(C(=N)N)cc2)cc1 [Pentamidine]
- % Enzyme Activity (relative to DMSO controls), Data 2 ([2]; 10 uM): 93.27%
- % Enzyme Activity (relative to DMSO controls), Data 2 ([1]; 10 uM, replicate Data 2): 88.42%

Compound: CC(=O)CCCCn1c(=O)c2c(ncn2C)n(C)c1=O [Pentoxifylline]
- % Enzyme Activity (relative to DMSO controls), Average ([3]; 1 uM): 90.71%
- % Enzyme Activity (relative to DMSO controls), Data 1 ([3]; 1 uM): 91.06%
- % Enzyme Activity (relative to DMSO controls), Data 2 ([3]; 1 uM): 90.35%
- % Enzyme Activity (relative to DMSO controls), Average ([3]; 10 uM): 88.11%
- % Enzyme Activity (relative to DMSO controls), Data 1 ([3]; 10 uM): 86.43%
- % Enzyme Activity (relative to DMSO controls), Data 2 ([3]; 10 uM): 89.78%

Compound: C=C[C@H]1CN2CC[C@H]1C[C@@H]2[C@@H](O)c1ccnc2ccc(OC)cc12 [Quinidine]
- % Enzyme Activity (relative to DMSO controls), Average ([1]; 1 uM, Average): 102.25%
- % Enzyme Activity (relative to DMSO controls), Data 1 ([1]; 1 uM, replicate Data 1): 101.97%
- % Enzyme Activity (relative to DMSO controls), Data 2 ([1]; 1 uM, replicate Data 2): 102.52%
- % Enzyme Activity (relative to DMSO controls), Average ([1]; 10 uM, Average): 96.54%
- % Enzyme Activity (relative to DMSO controls), Data 1 ([1]; 10 uM, replicate Data 1): 95.41%
- % Enzyme Activity (relative to DMSO controls), Data 2 ([1]; 10 uM, replicate Data 2): 97.67%

Compound: CC(C)(C)NC(=O)[C@@H]1C[C@@H]2CCCC[C@@H]2CN1C[C@@H](O)[C@H](Cc1ccccc1)NC(=O)[C@H](CC(N)=O)NC(=O)c1ccc2ccccc2n1 [Saquinavir, reference compound]
- remaining activity at 1 µM [4, 5]: 109%
- remaining activity at 1 µM [4, 6]: 107%
- remaining activity at 1 µM [4, 7]: 111%
- remaining activity at 10 µM [4, 5]: 121%
- remaining activity at 10 µM [4, 6]: 123%
- remaining activity at 10 µM [4, 7]: 119%
- remaining activity at 1 µM [1, 8]: 87.1%
- remaining activity at 1 µM [1, 9]: 88.8%
- remaining activity at 1 µM [1, 10]: 85.3%
- remaining activity at 10 µM [1, 11]: 27.8%
- remaining activity at 10 µM [1, 12]: 27.8%
- remaining activity at 10 µM [1, 13]: 27.8%
- remaining activity at 1 µM [1, 14]: 87.1%
- remaining activity at 10 µM [1, 15]: 27.8%

Compound: Cn1c(=O)c2[nH]cnc2n(C)c1=O [Theophylline]
- % Enzyme Activity (relative to DMSO controls), Average ([1]; 1 uM, Average): 109.44%
- % Enzyme Activity (relative to DMSO controls), Data 1 ([1]; 1 uM, replicate Data 1): 109.64%
- % Enzyme Activity (relative to DMSO controls), Data 2 ([1]; 1 uM, replicate Data 2): 109.23%
- % Enzyme Activity (relative to DMSO controls), Average ([1]; 10 uM, Average): 98.91%
- % Enzyme Activity (relative to DMSO controls), Data 1 ([1]; 10 uM, replicate Data 1): 100.03%
- % Enzyme Activity (relative to DMSO controls), Data 2 ([1]; 10 uM, replicate Data 2): 97.79%

Compound: Acarbose
- % Enzyme Activity (relative to DMSO controls), Average ([1]; 1 uM, Average): 112.14%
- % Enzyme Activity (relative to DMSO controls), Data 1 ([1]; 1 uM, replicate Data 1): 116.25%
- % Enzyme Activity (relative to DMSO controls), Data 2 ([1]; 1 uM, replicate Data 2): 108.03%
- % Enzyme Activity (relative to DMSO controls), Average ([1]; 10 uM, Average): 96.08%
- % Enzyme Activity (relative to DMSO controls), Data 1 ([1]; 10 uM, replicate Data 1): 99.05%
- % Enzyme Activity (relative to DMSO controls), Data 2 ([1]; 10 uM, replicate Data 2): 93.1%

Now from value to compound:

- % Enzyme Activity (relative to DMSO controls), Average ([3]; 1 uM): 92.40%
- % Enzyme Activity (relative to DMSO controls), Data 1 ([3]; 1 uM): 91.41%
- % Enzyme Activity (relative to DMSO controls), Data 2 ([3]; 1 uM): 93.38%
- % Enzyme Activity (relative to DMSO controls), Average ([3]; 10 uM): 107.92%
- % Enzyme Activity (relative to DMSO controls), Data 1 ([3]; 10 uM): 110.57%
- % Enzyme Activity (relative to DMSO controls), Data 2 ([3]; 10 uM): 105.26%
Compound: Nc1nc2[nH]cnc2c(=S)[nH]1 [Thioguanine]

- remaining activity at 1 µM [1, 8]: 90.4%
- remaining activity at 1 µM [1, 9]: 70.4%
- remaining activity at 1 µM [1, 10]: 110%
- remaining activity at 10 µM [1, 11]: 14.8%
- remaining activity at 10 µM [1, 12]: 14.9%
- remaining activity at 10 µM [1, 13]: 14.6%
- remaining activity at 1 µM [1, 14]: 90.4%
- remaining activity at 10 µM [1, 15]: 14.8%
Compound: CN(C)CCOc1ccc(/C(=C(/CCCl)c2ccccc2)c2ccccc2)cc1 [Toremifene, reference compound]

- % Enzyme Activity (relative to DMSO controls), Average ([2]; 1 uM): 100.61%
- % Enzyme Activity (relative to DMSO controls), Data 1 ([2]; 1 uM): 99.56%
- % Enzyme Activity (relative to DMSO controls), Data 2 ([2]; 1 uM): 101.65%
- % Enzyme Activity (relative to DMSO controls), Average ([2]; 10 uM): 97.73%
- % Enzyme Activity (relative to DMSO controls), Data 1 ([2]; 10 uM): 102.27%
- % Enzyme Activity (relative to DMSO controls), Data 2 ([2]; 10 uM): 93.19%
- % Enzyme Activity (relative to DMSO controls), Average ([1]; 1 uM, Average): 100.48%
- % Enzyme Activity (relative to DMSO controls), Data 1 ([1]; 1 uM, replicate Data 1): 103.12%
- % Enzyme Activity (relative to DMSO controls), Data 2 ([1]; 1 uM, replicate Data 2): 97.84%
- % Enzyme Activity (relative to DMSO controls), Average ([1]; 10 uM, Average): 91.18%
- % Enzyme Activity (relative to DMSO controls), Data 1 ([1]; 10 uM, replicate Data 1): 92.93%
- % Enzyme Activity (relative to DMSO controls), Data 2 ([1]; 10 uM, replicate Data 2): 89.43%
Compound: CN1[C@@H]2CC[C@H]1C[C@@H](OC(=O)c1c[nH]c3ccccc13)C2 [Tropisetron]
